# Test results reported in US20260108646A1, “METHOD AND DEVICE FOR DI[…]/OR S[…]” (SCHWING TECHNOLOGIES GMBH, priority 2022, published 2026).
# Key:
# [1] = test system: human patellar tendon allografts; conditions: in vitro study, human patellar tendon allografts [98]; cited from earlier work
# [2] = test system: Geobacillus stearothermophilus spores; assay: Validation tests for disinfection of laboratory utensils sprinkled with spore suspension SAL 10^6; format: cell-based; conditions: for Biological Result #not sterile/#tested: PES in solution 4 %
# [3] = test system: Geobacillus stearothermophilus spores; assay: Validation tests for disinfection of bio-indicator spore strips SAL 10^5; format: cell-based; conditions: 50-55° C.
compound,measurement,setting,value
"CC(=O)OO [PES, peracetic acid]",cytotoxic and pro-inflammatory effects,[1],neither cytotoxic nor pro-inflammatory effects
same,Biological Result #not sterile/#tested,"[2]; test 5, PES in process chamber 1.9 g/m^3, process duration 120 min",0/4
same,Biological Result #not sterile/#tested,"[2]; test 7, PES in process chamber 1.9 g/m^3, process duration 60 min",0/4
same,Biological Result #not sterile/#tested,"[2]; test 8, PES in process chamber 1.9 g/m^3, process duration 45 min",0/4
same,Biological Result #not sterile/#tested,"[2]; test 12, PES in process chamber 1.9 g/m^3, process duration 15 min",0/4
same,Biological Result #not sterile/#tested,"[2]; test 13, PES in process chamber 1.9 g/m^3, process duration 10 min",0/4
same,Biological Result #not sterile/#tested,"[2]; test 14, PES in process chamber 1.9 g/m^3, process duration 5 min",0/4
same,Biological Result #not sterile/#tested,"[2]; test 15, PES in process chamber 1.7 g/m^3, process duration 20 min",0/4
same,Biological Result #not sterile/#tested,"[2]; test 16, PES in process chamber 1.7 g/m^3, process duration 15 min",0/4
same,Biological Result #not sterile/#tested,"[2]; test 19, PES in process chamber 1.3 g/m^3, process duration 20 min",0/4
same,Biological Result #not sterile/#tested,"[2]; test 20, PES in process chamber 1.3 g/m^3, process duration 15 min",0/4
same,Biological Result #not sterile/#tested,"[2]; test 21, PES in process chamber 0.94 g/m^3, process duration 60 min",0/4
same,Biological Result #not sterile/#tested,"[2]; test 22, PES in process chamber 0.94 g/m^3, process duration 40 min",0/4
same,Biological Result #not sterile/#tested,"[2]; test 23, PES in process chamber 0.94 g/m^3, process duration 30 min, not sterile: pipette",(pipette) 1/8
same,Biological Result #not sterile/#tested,"[2]; test 24, PES in process chamber 0.94 g/m^3, process duration 20 min",0/8
same,Biological Result #not sterile/#tested,"[2]; test 25, PES in process chamber 0.94 g/m^3, process duration 15 min, not sterile: pipette",(pipette) 1/4
same,Biological Result #not sterile/#tested,"[2]; test 26, PES in process chamber 0.94 g/m^3, process duration 10 min",0/4
same,Biological Result #not sterile/#tested,"[2]; test 27, PES in process chamber 0.94 g/m^3, process duration 5 min, not sterile: pipette",(pipette) 1/4
same,Biological Result #not sterile/#tested,"[2]; test 28, PES in process chamber 0.47 g/m^3, process duration 60 min",0/4
same,Biological Result #not sterile/#tested,"[2]; test 29, PES in process chamber 0.47 g/m^3, process duration 30 min",0/4
same,Biological Result #not sterile/#tested,"[2]; test 30, PES in process chamber 0.47 g/m^3, process duration 15 min, not sterile: Eppi",(Eppi) 1/4
same,Biological Result #not sterile/#tested,"[2]; test 31, PES in process chamber 0.47 g/m^3, process duration 10 min, not sterile: pipette",(pipette) 1/4
same,Biological Result #not sterile/#tested,"[2]; test 32, PES in process chamber 0.47 g/m^3, process duration 5 min, not sterile: mask, pipette","(mask, pipette) 2/4"
same,spore growth after seven days in nutrient solution,"[2]; various tests, relatively low PES concentration in the process chamber and short process duration",spore growth was observed after seven days
same,growth or proliferation of the spores after treatment,[3]; all spore strips tested at different PES concentrations and different processing times,no growth or proliferation of the spores could be detected
same,Biological Result #not sterile/#tested,"[3]; test 1, PES in solution 6 %, PES in process chamber 3 g/m^3, process duration 240 min",0/2
same,Biological Result #not sterile/#tested,"[3]; test 2, PES in solution 6 %, PES in process chamber 3 g/m^3, process duration 120 min",0/1
same,Biological Result #not sterile/#tested,"[3]; test 3, PES in solution 6 %, PES in process chamber 1.7 g/m^3, process duration 150 min",0/2
same,Biological Result #not sterile/#tested,"[3]; test 4, PES in solution 4 %, PES in process chamber 2 g/m^3, process duration 120 min",0/1
same,Biological Result #not sterile/#tested,"[3]; test 5, PES in solution 4 %, PES in process chamber 1.9 g/m^3, process duration 120 min",0/2
same,Biological Result #not sterile/#tested,"[3]; test 6, PES in solution 4 %, PES in process chamber 1.9 g/m^3, process duration 90 min",0/2
same,Biological Result #not sterile/#tested,"[3]; test 7, PES in solution 4 %, PES in process chamber 1.9 g/m^3, process duration 60 min",0/4
same,Biological Result #not sterile/#tested,"[3]; test 8, PES in solution 4 %, PES in process chamber 1.9 g/m^3, process duration 45 min",0/1
same,Biological Result #not sterile/#tested,"[3]; test 9, PES in solution 4 %, PES in process chamber 1.9 g/m^3, process duration 40 min",0/2
same,Biological Result #not sterile/#tested,"[3]; test 10, PES in solution 4 %, PES in process chamber 1.9 g/m^3, process duration 30 min",0/2
same,Biological Result #not sterile/#tested,"[3]; test 11, PES in solution 4 %, PES in process chamber 1.9 g/m^3, process duration 20 min",0/2
same,Biological Result #not sterile/#tested,"[3]; test 12, PES in solution 4 %, PES in process chamber 1.9 g/m^3, process duration 15 min",0/1
same,Biological Result #not sterile/#tested,"[3]; test 13, PES in solution 4 %, PES in process chamber 1.9 g/m^3, process duration 10 min",0/1
same,Biological Result #not sterile/#tested,"[3]; test 14, PES in solution 4 %, PES in process chamber 1.9 g/m^3, process duration 5 min",0/1
same,Biological Result #not sterile/#tested,"[3]; test 15, PES in solution 4 %, PES in process chamber 1.7 g/m^3, process duration 20 min",0/1
same,Biological Result #not sterile/#tested,"[3]; test 16, PES in solution 4 %, PES in process chamber 1.7 g/m^3, process duration 15 min",0/1
same,Biological Result #not sterile/#tested,"[3]; test 17, PES in solution 4 %, PES in process chamber 1.5 g/m^3, process duration 240 min",0/2
same,Biological Result #not sterile/#tested,"[3]; test 18, PES in solution 4 %, PES in process chamber 1.5 g/m^3, process duration 150 min",0/2
same,Biological Result #not sterile/#tested,"[3]; test 19, PES in solution 4 %, PES in process chamber 1.3 g/m^3, process duration 20 min",0/1
same,Biological Result #not sterile/#tested,"[3]; test 20, PES in solution 4 %, PES in process chamber 1.3 g/m^3, process duration 15 min",0/1
same,Biological Result #not sterile/#tested,"[3]; test 21, PES in solution 4 %, PES in process chamber 0.94 g/m^3, process duration 60 min",0/5
same,Biological Result #not sterile/#tested,"[3]; test 22, PES in solution 4 %, PES in process chamber 0.94 g/m^3, process duration 40 min",0/1
same,Biological Result #not sterile/#tested,"[3]; test 23, PES in solution 4 %, PES in process chamber 0.94 g/m^3, process duration 30 min",0/2
same,Biological Result #not sterile/#tested,"[3]; test 24, PES in solution 4 %, PES in process chamber 0.94 g/m^3, process duration 20 min",0/2
same,Biological Result #not sterile/#tested,"[3]; test 25, PES in solution 4 %, PES in process chamber 0.94 g/m^3, process duration 15 min",0/1
same,Biological Result #not sterile/#tested,"[3]; test 26, PES in solution 4 %, PES in process chamber 0.94 g/m^3, process duration 10 min",0/1
same,Biological Result #not sterile/#tested,"[3]; test 27, PES in solution 4 %, PES in process chamber 0.94 g/m^3, process duration 5 min",0/1
same,Biological Result #not sterile/#tested,"[3]; test 28, PES in solution 4 %, PES in process chamber 0.47 g/m^3, process duration 60 min",0/1
same,Biological Result #not sterile/#tested,"[3]; test 29, PES in solution 4 %, PES in process chamber 0.47 g/m^3, process duration 30 min",0/1
same,Biological Result #not sterile/#tested,"[3]; test 30, PES in solution 4 %, PES in process chamber 0.47 g/m^3, process duration 15 min",0/1
same,Biological Result #not sterile/#tested,"[3]; test 31, PES in solution 4 %, PES in process chamber 0.47 g/m^3, process duration 10 min",0/1
same,Biological Result #not sterile/#tested,"[3]; test 32, PES in solution 4 %, PES in process chamber 0.47 g/m^3, process duration 5 min",0/1
